Experimental data published in patent US12551578B2, “Compound or salt thereof” (SHIZUOKA PREFECTURAL UNIVERSITY CORPORATION, priority 2019, dated 2026).

Assays:
bovine thymus DNA [1] = assay: DNA intercalation analysis by shift of absorption wavelength (bathochromic effect); format: binding; conditions: for Absorption wavelength difference: DNA 30 μg/mL versus 0 μg/mL; for intercalation into DNA judged from absorption wavelength shift: Table 2; for DNA0: Absorption wavelength when DNA concentration was 0 μg/mL / DNA30: Absorption wavelength when DNA concentration was 30 μg/mL: compound 10 μg/mL in 0.1 M Tris-HCl, peak top wavelength
Procedure: In addition, since the absorption spectrum shifted to the long wavelength side due to intercalation of the compound between base pairs of DNA (bathochromic effect), the shift of the absorption wavelength was measured by mixing DNA and the compound. Specifically, the compounds shown in Table 2 were dissolved in a 0.1 M Tris-HCl buffer solution at 10 μg/mL, and bovine thymus DNA was added thereto at 0 μg/mL or 30 μg/mL to prepare measurement samples. Then, the absorption spectrum of each measurement sample was measured, and the absorption wavelength (peak top wavelength) was determined.

[2] = Quantum yield and molar absorption coefficient (Table 1); format: physicochemical
bovine thymus DNA [3] = assay: DNA intercalation analysis by fluorescence intensity on mixing with DNA; format: binding; conditions: for intercalation into DNA judged from fluorescence intensity: FIG. 4 and Table 1; for Fluorescence intensity ratio (DNA20/DNA0): compound 10 μg/mL in 0.1 M Tris-HCl pH 7.5, DNA 20 μg/mL versus 0 μg/mL
Procedure: Since the fluorescence intensity was improved due to intercalation of the compound between base pairs of DNA, the fluorescence intensity was measured by mixing DNA and the compound. First, the compounds shown in Table 1 were dissolved in a 0.1 M Tris-HCl buffer solution (pH 7.5) at 10 μg/mL, and bovine thymus DNA was added thereto at 0 μg/mL, 5 μg/mL, 10 μg/mL or 20 μg/mL to prepare measurement samples. Then, the fluorescence intensity of each measurement sample was measured (excitation wavelength 355 to 536 nm, fluorescence wavelength of 420 to 605 nm). In Table 1, the fluorescence intensity ratio is a ratio (DNA20/DNA0) of the fluorescence intensity (DNA20) when the DNA concentration was 20 μg/mL and the fluorescence intensity (DNA0) when the DNA concentration was 0 μg/mL.

[4] = tested on: reactive oxygen species in the brain (right striatum); assay: PET measurement of probe accumulation in SNP model rats; format: in vivo, rat; conditions: for ratio of radioactivity accumulated amount (SUV) between right striatum (SNP) and left striatum (control): 20 MBq i.v. bolus, 30-45 minutes after administration, FIGS. 2(E) and 2(F)
Procedure: Accumulation of [^18F]FHM, [^18F]FPHM and [^11C]HM was analyzed using rats in which reactive oxygen species were produced in the brain (right striatum) to which sodium nitroprusside (SNP) has been administered.
While rats were anesthetized with 1.5-2.0% isoflurane (dilution gas:oxygen), 4 μL of a 20 nmol/μL SNP solution (saline) was injected into the right striatum of the rat at a rate of 0.8 μL/min using a Hamilton syringe (26 gauge). 4 μL of a saline was injected into the left striatum in the same method. PET measurement was performed on SNP-administered rats (SNP model rats) 60 minutes after SNP administration.
After transmission measurement was performed for 15 minutes for absorption correction, a bolus of 20 MBq [^18F]FHM, [^18F]FPHM or [^11C]HM was administered from the caudal vein of the rat, and emission measurement was performed for 90 minutes. After PET measurement was completed, the PET accumulation images of the brain 0-15 minutes, 15-30 minutes, 30-45 minutes, 45-60 minutes, 60-75 minutes, and 75-90 minutes after [^18F]FHM, [^18F]FPHM or [^11C]HM was administered were superimposed on the brain CT images. Regions of interest were set on the PET images of the right striatum and the left striatum identified from the X-CT images, and the value normalized according to the body weight of each individual subject and the administered radioactivity amount was used as the amount of [^18F]FHM, […] or […] accumulated at each site (radioactivity accumulated amount (SUV)) (each group, 5 rats).
In addition, as a control, PET measurement was performed on rats in which only a saline was administered to both the right striatum and the left striatum (control rat) in the same method as above.

[5] = tested on: reactive oxygen species in the brain (right striatum); assay: Brain fluorescence imaging in SNP model rats; format: in vivo, rat; conditions: 5 mg/kg i.v. bolus, brain extracted 1 hour after administration, compared to DHE, FIG. 5
Procedure: 4 μL of a 20 nmol/μL SNP solution (phosphate buffered saline (PBS) solution) was injected into the right striatum of the rat at a rate of 0.8 μL/min using a Hamilton syringe (26 gauge). 4 μL of PBS was injected into the left striatum in the same method. A bolus of 5 mg/kg DHE or isopropyl reduced component was administered from the caudal vein of the rat 60 minutes after SNP administration for SNP-administered rats (SNP model rats). The brain was extracted 1 hour after administration and a 20 μm-thick frozen section was prepared. Brain fluorescence images were obtained by a scanner type image analysis device (FLA700: excitation wavelength of 532 nm, filter 580 nm).

CN1c2cc(NC3CCC3)ccc2-c2ccc(NC3CCC3)cc2C1c1ccccc1 (stereo not drawn) [Cyclobutyl form]
Absorption wavelength difference (bovine thymus DNA [1]): 18 nm
intercalation into DNA judged from absorption wavelength shift (bovine thymus DNA [1]): almost no intercalation into DNA occurred
DNA0: Absorption wavelength when DNA concentration was 0 μg/mL (bovine thymus DNA [1]): 557 nm
DNA30: Absorption wavelength when DNA concentration was 30 μg/mL (bovine thymus DNA [1]): 575 nm
ε · ϕ (molar absorption coefficient x quantum yield) [2]: 47.04
ϕ: quantum yield [2]: 3.62 10^−3
intercalation into DNA judged from fluorescence intensity (bovine thymus DNA [3]): almost no intercalation into DNA occurred
Fluorescence intensity ratio (DNA20/DNA0) (bovine thymus DNA [3]): 1.62

CC(C)N(c1ccc2c(c1)C(c1ccccc1)N(C)c1cc(N(C(C)C)C(C)C)ccc1-2)C(C)C (stereo not drawn) [Di-isopropyl form]
Absorption wavelength difference (bovine thymus DNA [1]): 4 nm
intercalation into DNA judged from absorption wavelength shift (bovine thymus DNA [1]): almost no intercalation into DNA occurred
DNA0: Absorption wavelength when DNA concentration was 0 μg/mL (bovine thymus DNA [1]): 559 nm
DNA30: Absorption wavelength when DNA concentration was 30 μg/mL (bovine thymus DNA [1]): 563 nm
ε · ϕ (molar absorption coefficient x quantum yield) [2]: 118.8
ϕ: quantum yield [2]: 8.48 10^−3
intercalation into DNA judged from fluorescence intensity (bovine thymus DNA [3]): almost no intercalation into DNA occurred
Fluorescence intensity ratio (DNA20/DNA0) (bovine thymus DNA [3]): 0.759

CC(C)Nc1ccc2c(c1)C(c1ccccc1)N(C)c1cc(NC(C)C)ccc1-2 (stereo not drawn) [Isopropyl form]
Absorption wavelength difference (bovine thymus DNA [1]): 8 nm
intercalation into DNA judged from absorption wavelength shift (bovine thymus DNA [1]): almost no intercalation into DNA occurred
DNA0: Absorption wavelength when DNA concentration was 0 μg/mL (bovine thymus DNA [1]): 517 nm
DNA30: Absorption wavelength when DNA concentration was 30 μg/mL (bovine thymus DNA [1]): 525 nm
ε · ϕ (molar absorption coefficient x quantum yield) [2]: 568.8
ϕ: quantum yield [2]: 40.6 10^−3
intercalation into DNA judged from fluorescence intensity (bovine thymus DNA [3]): almost no intercalation into DNA occurred
Fluorescence intensity ratio (DNA20/DNA0) (bovine thymus DNA [3]): 0.996

C[n+]1c(-c2ccccc2)c2cc(N)ccc2c2ccc(N)cc21 [Methidium, reference compound]
Absorption wavelength difference (bovine thymus DNA [1]): 40 nm
intercalation into DNA judged from absorption wavelength shift (bovine thymus DNA [1]): intercalation into DNA occurred
DNA0: Absorption wavelength when DNA concentration was 0 μg/mL (bovine thymus DNA [1]): 481 nm
DNA30: Absorption wavelength when DNA concentration was 30 μg/mL (bovine thymus DNA [1]): 521 nm
ε · ϕ (molar absorption coefficient x quantum yield) [2]: 97.34
ϕ: quantum yield [2]: 2.68 10^−3
intercalation into DNA judged from fluorescence intensity (bovine thymus DNA [3]): intercalation into DNA occurred
Fluorescence intensity ratio (DNA20/DNA0) (bovine thymus DNA [3]): 3.03

[11CH3]N1c2cc(N)ccc2-c2ccc(N)cc2C1c1ccccc1 (stereo not drawn) [[^11C]HM, reference compound]
ratio of radioactivity accumulated amount (SUV) between right striatum (SNP) and left striatum (control) [4]: about 3 times

CN1c2cc(N)ccc2-c2ccc(N)cc2C1c1ccc([18F])cc1 (stereo not drawn) [[^18F]FHM]
ratio of radioactivity accumulated amount (SUV) between right striatum (SNP) and left striatum (control) [4]: about 5 times
radioactivity accumulated amount in the right striatum, comparison of probes ([4]; FIGS. 2(A) and 2(B)): larger in [^18F]FHM than in [^11C]HM

CC(C)Nc1ccc2c(c1)C(c1ccc(F)cc1)N(C)c1cc(NC(C)C)ccc1-2 (stereo not drawn) [isopropyl reduced component]
accumulation in the right striatum to which SNP has been administered (brain fluorescence images) [5]: a large amount of accumulation in the right striatum
